According to US20250346587A1, “NITROGEN-CONTAINING FIVE-MEMBERED HETEROCYCLIC DERIVATIVES AS CHECKPOINT KINASE 1 INHIBITOR AND USES THEREOF” (SPEROGENIX THERAPEUTICS LIMITED, priority 2022, published 2025):
pIC50: −log10 of the molar value. Values after ≈ are worked out from the molar mass of the structure shown. Like-named read-outs stand apart in the source and are kept apart here.

Experiments:
CHK-1 kinase = CHK-1 kinase (Homo sapiens (Human), UniProt O14757); assay: CHK-1 % inhibition kinase assay (TR-FRET); format: biochemical; details: ATP 15 μM; for inhibition at 0.03 µM / inhibition at 0.3 µM: CHK1 enzyme; for inhibition at 0.03 µM: compound 30 nM; for inhibition at 0.3 µM: compound 300 nM; for pIC50: TR-FRET, read-out: CHK1 IC50
Procedure: Inhibition of CHK-1 kinase or percent inhibition at defined concentrations was determined by TR-FRET assay. Kinase reactions were performed in a 20 μL volume in low-volume 384-well plates (Cat #Corning 4511). The concentration of substrate Fluorescein-CREBtide was maintained at 0.2 μM in the assay, and the kinase reaction buffer consisted of 50 mM HEPES pH 7.5, 0.01% BRIJ-35, 10 mM MgCl2, 1 mM EGTA. Serially diluted compounds (3-fold) in DMSO (0.5% in final reaction) were incubated with cocktail of CHK-1 kinase (6 nM; Cat #PR3959B, ThermoFisher), Fluorescein-CREBtide (0.2 μM; Cat #PV3508, ThermoFisher), ATP (15 μM; Cat #A1852, Sigma), and kinase reaction buffer. After 1 hour kinase reactions at room temperature, 10 μL of Detection mix (8 nM LanthaScreen® Tb-CREB [pSer133] antibody, Cat #PV3542, ThermoFisher with 20 mM EDTA in TR-FRET Buffer, Cat #PV3574, ThermoFisher) was added, and the plate was read with a plate reader (Synergy™ NEO; Biotek) for TR-FRET.
The resulting TR-FRET emission ratio was used to calculate the percent inhibition by normalizing to the control using the following formula: […]

physchem = details: 37 °C, pH 7.4, aqueous buffer, kinetic from dmso stock
Procedure: (§2) Test articles were serially diluted in DMSO from concentration range of 10 mM to 0.078 mM in 96 well v-bottom dilution plate (#3363, Corning). 1 μL of test article from each well was transferred to 96 well flat bottom clear plates (#655101, Greiner) containing 99 μL of PBS at pH-7.4, which makes the test drug final concentration range from 100 μM to 0.78 μM. Samples were incubated for 1 hour at 37° C. followed by measurement of light scattering at 625 nm with a laser based micro plate Nephelometer (Nephlostar Plus, BMG Labtech). Solubility concentration (μM) was then calculated by segmental regression with Neplometer as Readout.

[1] = Microsomal stability assay, human liver microsome; format: in vitro ADME; details: liver microsomes, pH 7.4, 0.2 mg/mL, 1 μM compound, 37° C., read-out: Clint HLM
Procedure: (§1) Incubation mixture contained 0.2 mg/mL microsomes, 1 mmol NADPH, and test compound at 1 μM in 100 mmol potassium phosphate buffer at pH 7.4. The mixtures were incubated at 37° C. for 5, 15, and 30 minutes. Aliquots of the mixtures were taken at 0, 5, 15 and 30 minutes and quenched with chilled Acetonitrile:Methanol (50:50) containing internal standard. Following completion of incubation, samples were centrifuged at 4,000 rpm at 4° C. The supernatant was analyzed by LC-MS/MS and half-life, as well as intrinsic clearance (Clint), were calculated.

[2] = Microsomal stability assay, rat liver microsome; format: in vitro ADME; details: liver microsomes, pH 7.4, 0.2 mg/mL, 1 μM compound, 37° C., read-out: Clint RLM
Procedure: as §1

[3] = Microsomal stability assay, mouse liver microsome; format: in vitro ADME; details: liver microsomes, pH 7.4, 0.2 mg/mL, 1 μM compound, 37° C., read-out: Clint MLM
Procedure: as §1

[4] = Caco-2 cell permeability assay; format: in vitro ADME; details: human; for Papp A→B at 120 min: Caco-2, A to B; for Papp A→B at 120 min / Papp B→A at 120 min: pH 7.4; for Papp B→A at 120 min: Caco-2, B to A
Procedure: After thawed, Caco-2 cells were cultured in the medium containing 10% FBS, 1% Sodium pyruvate, 1% NEAA and 1% Glutamax MEM, then were placed in the incubator containing 5% CO2 at 37° C., and the culture medium then was replaced every 2-3 days. When the confluence reached 80%, the subculture was carried out. Add 5 mL of 1 M HEPES to 500 mL of HBSS for preparing transport buffer (pH 7.4), and the final concentration of HEPES was 10 mM. Before the transport study (day 21-28), take out the culture medium from the cell culture plate, wash it twice with preheated HBSS buffer (10 mM HEPES, pH 7.4), and add 100 μL HBSS buffer to each well. After incubation at 37° C. for 30 minutes, Teer value was measured by cell resistance meter (Millicell-ERS2) to confirm the integrity of monolayer cells. Discard the HBSS buffer, transfer the upper plate containing the cell monolayer membrane to the corresponding receiving plate, add the test compound solution or buffer to the top (side A) and the bottom (side B) respectively, put the cell plate into the corresponding 96 well receiving plate, and add the prepared positive control compound, test compound or HBSS buffer (with 0.5% BSA) on side A or side B of the filter membrane of Transwell cell plate according to the following groups, incubate cell plates at 37° C. When incubated for 5 minutes, 8 μL sample solutions were taken from the side A and the side B respectively and add 72 μL transport buffer (diluted 10 times) as TO of the initial solution. After 120 minutes of incubation, collect the samples at both ends of the filter membrane of Transwell cell plate; take 80 μL sample solution from the receiving side as the sample on the receiving side after transport, meanwhile take 8 μL sample solution from the administration side and then mix with 72 μL transport buffer, the well-mixed solution was used as the sample on the administration side after transport. After collecting bilateral samples, tap gently, discard the remaining solution in the cell plate, wash the cell plate with transport buffer; and to each well, add 100 μL acetonitrile solution containing internal standard working solution to lyse cells; After mixing well by blowing up and down, take 80 μL per well cell lysate as the sample after cell lysis. After collecting all samples in the transport system (TO sample from receiving side and administration side), 160 μL IS/ACN solution was added to each well, 80 μL IS/ACN solution was added to the collected lysate sample, and then seal it. Shake for 10 minutes and store the sample plate at −20° C. before LC-MS/MS analysis.
The following equation are used to calculate the apparent permeability coefficient (Papp, cm/s), the efflux ratio (ER), the solution recovery (% Recovery) and the total recovery (% Total Recovery).
Where, • Vreceiver is the volume of solution at the receiving end (0.25 mL for A to B and 0.1 mL for B to A); • Vdonor is the volume of the solution at the administration end (0.1 mL for A to B and 0.25 mL for B to A); • Vlysate is the volume of cell lysate (0.1 mL); • Area is the relative surface area of the cell monolayer (0.0804 cm^2); • Time is the incubation time (7200 s); • [drug]receiver is the drug concentration (nM) at the receiving end or the control compound; • [drug]donor is the concentration of drug or control compound at the administration end (nM); • [drug]lysate is the concentration of drug or control compound in cell lysate (nM); • [drug]initial is the initial concentration of the test or control compound (nM).

[5] = Kinetic solubility assay (nephelometry); details: PBS, 37 °C, pH 7.4, aqueous buffer, kinetic from dmso stock
Procedure: as §2

[6] = Caco-2, pH 7.4, Caco-2, solution recovery, A to B, read-out: Recovery % A to B
[7] = Caco-2, pH 7.4, Caco-2, solution recovery, B to A, read-out: Recovery % B to A
[8] = Caco-2, pH 7.4, Caco-2, total recovery with cell lysate, A to B, read-out: Recovery % with Cell Lysate A to B
[9] = Caco-2, pH 7.4, Caco-2, total recovery with cell lysate, B to A, read-out: Recovery % with Cell Lysate B to A

CHK-1 kinase, sequence (O14757 whole entry): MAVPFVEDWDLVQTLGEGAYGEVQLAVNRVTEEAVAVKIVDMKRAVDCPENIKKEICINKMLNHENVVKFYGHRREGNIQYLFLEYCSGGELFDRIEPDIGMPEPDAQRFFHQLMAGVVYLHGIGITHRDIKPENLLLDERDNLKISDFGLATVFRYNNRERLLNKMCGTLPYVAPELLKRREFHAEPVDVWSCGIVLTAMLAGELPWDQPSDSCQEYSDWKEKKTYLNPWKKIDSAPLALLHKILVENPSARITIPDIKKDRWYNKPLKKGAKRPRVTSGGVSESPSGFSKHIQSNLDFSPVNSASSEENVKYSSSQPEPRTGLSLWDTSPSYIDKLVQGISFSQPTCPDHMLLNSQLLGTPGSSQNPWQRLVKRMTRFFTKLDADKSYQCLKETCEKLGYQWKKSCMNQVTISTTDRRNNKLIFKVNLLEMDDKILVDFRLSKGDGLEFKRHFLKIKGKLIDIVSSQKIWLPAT

SMILES | inhibition at 0.03 µM (CHK-1 kinase) [%] | inhibition at 0.3 µM (CHK-1 kinase) [%] | pIC50 (CHK-1 kinase) | solubility kinetic at 1 h (physchem) [µM] | microsomal CLint at 1 μM [1] [µL/min/mg] | microsomal CLint at 1 μM [2] [µL/min/mg] | microsomal CLint at 1 μM [3] [µL/min/mg] | recovery at 120 min [4, 6] [%] | recovery at 120 min [4, 7] [%] | recovery at 120 min [4, 8] [%] | recovery at 120 min [4, 9] [%] | Papp A→B at 120 min [4] [×10⁻⁶ cm/s] | Papp B→A at 120 min [4] [×10⁻⁶ cm/s] | solubility kinetic at 1 h [5] [µM]
COc1cc(C2=CCNCC2)ccc1-c1cc(Nc2cnc(C#N)cn2)on1 [Compound 1.9, 5-(3-(2-methoxy-4-(1,2,3,6-tetrahydropyridin-4-yl)phenyl)isoxazol-5-ylamino) pyrazine-2-carbonitrile] | 33 | 31 | < 5.00 | 100 (≈ 37.4 µg/mL) | 159 | 85 | 83 |  |  |  |  |  |  | 
N#Cc1cnc(Nc2cc(-c3ccccc3OCC3CNCCO3)on2)cn1 (stereo not shown) [Compound 1.1, 5-(5-(2-(morpholin-2-ylmethoxy)phenyl)isoxazol-3-ylamino) pyrazine-2-carbonitrile] | 49 | 88 | 7.17 |  | 32 | 58 | 100 | 69 | 102 | 94.1 | 107 | 7 | 8.7 | 44 (≈ 16.6 µg/mL)
N#Cc1cnc(Nc2cc(-c3ccccc3OCC3CCNCC3)on2)cn1 [Compound 1.2, 5-(5-(2-(piperidin-4-ylmethoxy)phenyl)isoxazol-3-ylamino) pyrazine-2-carbonitrile] | 36 | 85 | 7.88 |  | 45 | 27 | 39 | 67.7 | 103 | 93.9 | 108 | 5.35 | 9.75 | 45.6 (≈ 17.2 µg/mL)
COc1cc(C2=CCNCC2)ccc1-c1cc(Nc2cnc(C#N)cn2)no1 [Compound 1.19, 5-(5-(2-methoxy-4-(1,2,3,6-tetrahydropyridin-4-yl)phenyl)isoxazol-3-ylamino) pyrazine-2-carbonitrile] | 15.1 | 50.5 |  | 27.6 (≈ 10.3 µg/mL) | 183 | 88 | 239 |  |  |  |  |  |  | 
N#Cc1cnc(Nc2cc(-c3ccccc3OCC3CCCNC3)on2)cn1 (stereo not shown) [Compound 1.3, 5-(5-(2-(piperidin-3-ylmethoxy)phenyl)isoxazol-3-ylamino) pyrazine-2-carbonitrile] | 50 | 97 | 8.11 |  | 47 | 61 | 68 | 54.7 | 103 | 89 | 107 | 3.4 | 11.2 | 100 (≈ 37.6 µg/mL)
COc1cc(C2=CCN(C)CC2)ccc1-c1cc(Nc2cnc(C#N)cn2)on1 [Compound 1.22, 5-(3-(2-methoxy-4-(1-methyl-1,2,3,6-tetrahydropyridin-4-yl)phenyl)isoxazol-5-ylamino) pyrazine-2-carbonitrile] | 13.7 | 11 |  | 28.4 (≈ 11 µg/mL) | 169 | 142 | 313 |  |  |  |  |  |  | 
